{"source": "patent EP2873675A1", "about": "“Peptide-based peroxidase inhibitors and methods of using same” (The Medical College of Wisconsin, Inc., priority 2013, dated 2015)", "key": {"MPO [1]": {"system": "MPO", "assay": "MPO-mediated LDL oxidation (conjugated diene formation, absorbance at 234 nm)", "format": "biochemical", "settings": "for conjugated diene formation in the LDL solution: for more than 2 hours", "description": "MPO-mediated oxidation of LDL. Reaction mixtures contained LDL (0.15 mg/ml), NaNO2 (100 µM), H2O2 (300 µM), MPO (20 nM) and various concentrations of KYC in a potassium phosphate buffer (100 mM, pH 7.4) containing DTPA (100 µM). LDL oxidation was monitored at 234 nm at room temperature on a HP UV/VIS spectrometer. Absorbance traces represent the average of duplicate experiments.\nMPO-mediated LDL Oxidation. Reaction mixtures contained LDL (0.15 mg/mL), NaNO2 (100 µM), H2O2 (100 µM), MPO (20 nM) and increasing concentrations of KYC in a phosphate buffer (100 mM, pH 7.4) containing DTPA (100 µM). Rates of LDL oxidation were monitored at room temperature at 234 nm, the wavelength maximum for conjugated dienes.\nMPO-mediated LDL Conjugated Diene Formation: Reaction mixtures contained LDL (0.15 mg/mL), NaNO2 (100 µM), H2O2 (100 µM), MPO (20 nM) and increasing concentrations of KYC or equimolar concentrations of various compounds in a phosphate buffer (100 mM, pH 7.4) containing DTPA (100 µM). Rates of LDL conjugated diene formation were determined by following changes in absorbance at 234 nm, the wavelength maximum for conjugated dienes, on a UV-Vis spectrophotometer (Agilent Model 8453) at room temperature."}, "MPO [2]": {"system": "MPO", "assay": "MPO-mediated nitration of bovine serum albumin (western blot)", "format": "biochemical", "settings": "for MPO-mediated BSA nitration: H2O2 100 µM, nitrite 100 µM", "description": "MPO-mediated Nitration of Bovine Serum Albumin (BSA). BSA (0.5 mg/mL) was incubated with MPO (20 nM), H2O2 (100 µM), nitrite (100 µM) and increasing concentrations of KYC in phosphate buffer (100 mM, pH 7.4) containing DTPA (100 µM) for 30 min. Reactions were stopped by addition of catalase. Nitrotyrosine formation was assessed by western blot analysis.\nMPO-mediated Nitration of Bovine Serum Albumin (BSA): BSA (0.5 mg/mL) was incubated with MPO (20 nM), H2O2 (25 µM), NaNO2 (50 µM) and increasing concentrations of KYC in phosphate buffer (100 mM, pH 7.4) containing DTPA (100 µM) for 30 min. Reactions were halted by addition of catalase (2,000 units/mL). NO2Tyr formation was assessed by western blot analysis with an anti-NO2Tyr rabbit polyclonal antibody (EMD, Gibbstown, NJ)."}, "SCD mice": {"system": "SCD mice", "assay": "Immunofluorescence of aortas of SCD mice", "format": "in vivo", "settings": "IP 0.3 mg/kg/d, three weeks; vs non-treated SCD mice", "description": "Immunofluorescence Studies. In a separate study, SCD mice were treated with KYC (IP, 0.3 mg/kg/d). After three weeks treatment, mice were deeply anesthetized and euthanized by exsanguination. Thoracic and abdominal aortas were surgically removed and rinsed free of blood elements using ice cold PBS. Aortas were fixed, imbedded in paraffin, and sectioned."}, "[3]": {"system": "OVA-sensitized C57BL/6J mice", "assay": "OVA murine model of experimentally-induced asthma (lung histology)", "format": "in vivo", "settings": "0.3 mg/kg every other day for 10 days", "excerpt": "Murine Model of Experimentally-Induced Asthma. C57BL/6J mice (12-14 wk old) from Jackson Laboratory (Bar Harbor, ME) were housed in sterile autoclavable microisolation cages and fed standard laboratory mouse chow and water ad libitum. All protocols were approved by the Institutional Animal Care and Use Committee (IACUC) of the Medical College of Wisconsin.\nC57BL/6J mice were divided into three groups; a control group (Control), an ovalbumin (OVA)-sensitized group and an OVA-sensitized group treated with KYC. OVA sensitization was achieved using a modification of a protocol previously described by de Siqueira et al^15 (Fig. 1). […] When mice inhale aerosolized OVA, robust allergic responses are routinely observed.\nBriefly, on day one, mice were anesthetized (halothane; Halocarbon Laboratories, River Edge, NJ) and a heat-denatured OVA fragment (∼80 mg, 5 × 2 × 2 mm) was implanted subcutaneously in the dorsal aspect of the neck. The incision was closed with stainless steel clips and the mouse was allowed to recover. Implantation of the heat-denatured OVA fragment initiates sensitization. On day fifteen, the implanted mice were exposed to aerosolized OVA (6% in PBS) for 30 minutes every other day for ten days. Twenty-four hours after the last OVA challenge, the mice were deeply anesthetized (halothane), sacrificed by exsanguination and the lungs removed for analysis. […]"}, "C57BL/6J mice": {"system": "C57BL/6J mice", "assay": "Acute lung injury: pulmonary retention of Q-dot labeled EMPs", "format": "in vivo", "settings": "pretreatment and treatment of EMP-injected mice", "description": "KYC Inhibits Acute Lung Injury. Inflammation and sepsis induce the release of endothelial cell microparticles (EMPs). Increased production of EMPs is hypothesized to play a causal role in the mechanisms mediating acute lung injury (ALI). To test this hypothesis, the inventors incubated human umbilical vein endothelial cells with PAI-1, which is well-recognized for inducing endothelial cells to generate EMPs. The EMPs were collected by ultracentrifugation, resuspended in physiological saline solution and then labeled with Q-dots. The Q-dot labeled EMPs were counted and then injected into C57BL/6J mice to achieve a final concentration of 100,000 EMPs/mL of blood. Mice were pretreated with phosphate buffered saline (Fig. 6) or KYC and then were injected with Q-dot labeled EMPs alone or Q-dot labeled EMPs plus KYC (Fig. 6)."}, "[4]": {"assay": "Solubility in water / physiological buffers", "format": "physicochemical", "settings": "can be added directly to physiological buffers"}}, "note": "Residues, ends and D or L forms follow the SMILES beside them."}
{"compound": "CC(=O)N[C@@H](CCCCN)C(=O)N[C@@H](Cc1ccc(O)cc1)C(=O)N[C@@H](CS)C(N)=O", "note": "[KYC, N-acetyl Lysyltyrosylcysteine amide] (Ac-Lys-Tyr-Cys-NH2)", "values": [{"measurement": "lag time of conjugated diene formation", "setting": "MPO [1]; 4 µM, MPO/H2O2/nitrite, H2O2 300 µM, lag time without peptide 25 min", "result": 90, "unit": "min"}, {"measurement": "reduction of the rate of LDL oxidation", "setting": "MPO [1]; 4 µM, at the end of the 2 hour incubation, on the basis of absorbance values", "result": "~80", "unit": "%"}, {"measurement": "conjugated diene formation in the LDL solution", "setting": "MPO [1]; 20 µM, MPO/H2O2/nitrite, H2O2 300 µM", "result": "totally suppresses"}, {"measurement": "MPO/H2O2/nitrite-mediated LDL oxidation", "setting": "MPO [1]; 25 µM, H2O2 100 µM, NaNO2 100 µM, MPO 20 nM", "result": "completely suppressed"}, {"measurement": "conjugated diene formation in the LDL solution", "setting": "MPO [1]; 100 µM, MPO/H2O2/nitrite, H2O2 300 µM", "result": "totally suppresses"}, {"measurement": "MPO-mediated BSA nitration", "setting": "MPO [2]; 30 µM", "result": "inhibits"}, {"measurement": "NO2Tyr formation in BSA", "setting": "MPO [2]; 50 µM, H2O2 25 µM, NaNO2 50 µM", "result": "essentially ablated"}, {"measurement": "MPO-mediated BSA nitration", "setting": "MPO [2]; 250 µM", "result": "essentially ablates"}, {"measurement": "MPO levels in the aortas", "setting": "SCD mice", "result": "reduced"}, {"measurement": "chlorotyrosine levels in the aortas", "setting": "SCD mice", "result": "reduced"}, {"measurement": "eosinophil infiltration in the lungs", "setting": "[3]; H&E", "result": "markedly reduce eosinophil infiltration to essentially control levels"}, {"measurement": "collagen deposition in the lungs", "setting": "[3]; McLetchie trichrome", "result": "markedly reduces collagen deposition to control levels"}, {"measurement": "pulmonary retention of Q-dot labeled EMPs", "setting": "C57BL/6J mice", "result": "dramatically decreases pulmonary retention"}, {"measurement": "solubility in water", "setting": "[4]", "result": "highly water soluble"}]}
